Columns and labels:
Details in all cases: P<0.05
anti-HBs IgG [1] = test: Test 2: serum anti-HBs IgG level by ELISA after immunization with hepatitis B surface antigen plus adjuvant (composite adjuvant of embodiment 2)
Experimental: Both of the total volume of vaccine for injection and of the composite vaccine adjuvant were 0.1 ml.
In the single sodium ferulate adjuvant group, sodium ferulate 25 mg and hepatitis B surface antigen 5 μg were mixed and dissolved into physiological saline 0.1 ml, and then were injected into mice subcutaneously.
In the adjuvant-free group, hepatitis B surface antigen 5 μg were dissolved into physiological saline 0.1 ml, and then were injected into mice subcutaneously.
(§1) In the blank group, each mouse was injected with physiological saline 0.1 ml.
(§2) Immunization schemes: three times immunization in total, subcutaneous injection of ICR mice in 0, 1, 6 month respectively.
(§3) B. ELISA Detection of Serum Anti-HBs IgG Level […]
(§4) The obtained experimental data were analyzed by single factor analysis of variance using SPSS11.5 statistics software, and P<0.05 having a statistically significance.

anti-HBs IgG [2] = test: Test 1: serum anti-HBs IgG level by ELISA after immunization with hepatitis B surface antigen plus adjuvant (composite adjuvant of embodiment 1)
Experimental: Both of the total volume of vaccines and the composite vaccine adjuvant for injection were 0.1 ml.
In the single sodium ferulate adjuvant group, sodium ferulate 10 mg and hepatitis B surface antigen 5 μg were mixed and dissolved into physiological saline 0.1 ml, and then were injected into mice subcutaneously.
(§5) In the adjuvant-free group, hepatitis B surface antigen 5 μg were mixed and dissolved into physiological saline 0.1 ml, and then were injected into mice subcutaneously.
as §1, §2, §3, §4

anti-HBs IgG [3] = test: Test 3: serum anti-HBs IgG level by ELISA after immunization with hepatitis B surface antigen plus adjuvant (composite adjuvant of embodiment 3)
Experimental: Both of the total volume of vaccines for injection and of the composite vaccine adjuvant were 0.1 ml.
In the single sodium ferulate adjuvant group, sodium ferulate 50 mg and hepatitis B surface antigen 5 μg were mixed and dissolved into physiological saline 0.1 ml, and then were injected into mice subcutaneously.
as §5, §1, §2
B. ELISA Detection of Serum Anti-HBs IgG Level
After 4, 8, 16, 24, 32 weeks of the initial immunization, collect vein blood of mouse tail, separate serum, and then use ELISA to detect the serum anti-HBs IgG level by method of protein microporous kit. […]
as §4

Measured: antibody levels compared with the aluminum adjuvant control group

[OH-].[OH-].[Zn+2] [zinc hydroxide]
significantly higher: all assays above
